In PubChem BioAssay (NCI):
Where “and” joins values, the source holds several entries; their conditions need not be identical. Equal entries are not always repeated.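 96-well plates; 48 h exposure; 5 concentrations. Endpoints by linear interpolation between flanking doses. Not reached: highest tested concentration assigned. Abbreviation: GI50, concentration required for 50% inhibition of growth. TGI: total growth inhibition.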

Legend:
Assay in all cases: growth of human tumour cells (NCI), 48 h
[1] = system: MALME-3M melanoma
[2] = system: SF-268 CNS
[3] = system: NCI/ADR-RES ovarian
[4] = system: CAKI-1 renal
[5] = system: NCI-H460 lung
[6] = system: EKVX NSCLC
[7] = system: A498 renal
[8] = system: SF-295 CNS
[9] = system: MDA-MB-231 breast
[10] = system: TK-10 renal

SMILES	GI50 [1] [nM]	TGI [1]	GI50 [2] [nM]	TGI [2]	GI50 [3] [nM]	TGI [3]	GI50 [4] [nM]	TGI [4]	GI50 [5] [nM]	TGI [5]	GI50 [6] [nM]	TGI [6]	GI50 [7] [nM]	TGI [7]	GI50 [8] [nM]	TGI [8]	GI50 [9] [nM]	TGI [9]	GI50 [10] [nM]	TGI [10]
COc1ccc(C(=NN=C(N)N)c2ccc(OC)cc2)cc1	2850	11.6 µM	2340	12 µM	21100	75.6 µM	5750	21 µM	3040	11 µM	4680	24.7 µM	2780	13.3 µM	2720	11.2 µM	3880	17.1 µM	4260	14.5 µM
COc1cc(/C=C/c2cc(/C=C/c3ccc(O)c(OC)c3)n(C(=O)Nc3ccccc3Cl)n2)ccc1O	539	2.01 µM	529	3.18 µM	247	7.91 µM	222	1.21 µM	331	1.25 µM	671	3.84 µM	487	2.04 µM	636	3.3 µM	708	11.4 µM	601	3.6 µM
COc1cc(N2C(=O)[C@H](c3ccccc3)C2c2ccc(SC)cc2)cc(OC)c1OC (some centres undefined)	> 100000	> 100 µM	48.5	> 100 µM	33.5	> 100 µM	46.3	> 100 µM	34.6	> 100 µM	51.3	> 100 µM	23.2	0.078 µM	35.2	6.94 µM	32.1	15.2 µM	638	> 100 µM
COCCOC1=CC(=O)c2c(O)ccc(O)c2C1=O	808	0.328 µM and 2.07 µM	3290	3.54 µM and 10.9 µM	–	7.41 µM and 5.63 µM	1680	4.37 µM and 3.14 µM	2010	3.11 µM and 4.2 µM	–	3.88 µM and 3.93 µM	2160	3.18 µM and 3.92 µM	2060	3.09 µM and 3.93 µM	2450	3.23 µM and 6.14 µM	2900	3.57 µM and 5.78 µM
CC(C)(C)c1cc(/C=N/NC(=O)c2ccccc2NC(=O)c2cccs2)c(O)c(C(C)(C)C)c1	2110	26.7 µM	668	> 100 µM	606	15.9 µM	536	> 100 µM	331	1.98 µM	365	> 100 µM	10400	42.5 µM	521	17.9 µM	1110	19.1 µM	994	18.1 µM
COc1cc(-c2nc3sc(C)cn3c2/C=C2\C(=O)Nc3ccccc32)c(Br)c(OC)c1OC	26100	78.5 µM	44700	> 100 µM	28300	82.5 µM	22600	57 µM	30500	94.8 µM	39300	> 100 µM	29000	63.5 µM	15600	40.7 µM	31600	97 µM	32900	77.5 µM
Cc1ccc2cccc(OC(=O)Nc3cccc(C(F)(F)F)c3)c2n1	3030	10 µM	4260	18.3 µM	3960	33.3 µM	3250	11.8 µM	2840	7.8 µM	–	–	2590	9.46 µM	2500	7.25 µM	2370	7.26 µM	3870	18.2 µM
Clc1cc(Cl)c(OCCCCCCN2CCNCC2)c(Cl)c1	2190	5.06 µM	5850	21.1 µM	8860	26.1 µM	2090	6.39 µM	2030	4.15 µM	9450	22.3 µM	9350	22.6 µM	1810	3.91 µM	2170	4.53 µM	11800	24.5 µM
C#CC(=O)Nc1cccc2c1cc(C)n2-c1nc2c(c(NCc3ccccc3)n1)CCCC2	54.7	0.195 µM	199	0.438 µM	127	0.645 µM	478	0.942 µM	759	2.59 µM	1310	2.96 µM	1750	3.74 µM	207	0.51 µM	57.8	0.261 µM	1660	3.09 µM
O=C(COc1cccc(/C=C2\CSc3ccc(Cl)cc3C2=O)c1)c1ccc(Cl)cc1	10600	23.9 µM	13600	30 µM	11300	31.4 µM	12200	34.1 µM	23100	> 100 µM	10600	38 µM	44600	> 100 µM	4480	18.7 µM	2930	16.5 µM	29000	79.9 µM
COc1cc(/C=C2\CCC/C(=C\c3ccc(O)c(OC)c3)C2=O)ccc1O	276	5.85 µM and 3.47 µM	1800	6.91 µM and 8.2 µM	2340	12.6 µM and 9.79 µM	1880	8.46 µM and 5.99 µM	2050	11.2 µM and 4.96 µM	2100	24.3 µM and 10.8 µM	1810	13.5 µM and 5.34 µM	1710	9.16 µM and 5.15 µM	2850	25.7 µM and 11.1 µM	2800	37.2 µM and 11.6 µM
CC(=O)CC/C=C(\C)[C@H](O)[C@H](C)C(=O)O[C@H]1C[C@H](C)C=C2C=C[C@@]3(C)O[C@@H](O)CC(=O)[C@]3(C)[C@H]21	588	2.7 µM	612	5.63 µM	1440	11.7 µM	–	–	379	7.38 µM	877	4.64 µM	2550	7.95 µM	746	6.51 µM	558	3.07 µM	942	5.5 µM
